Assay results published in the supplement of paper PMC11061612.

Tests used:
[1] = tested on: YAPC (Pancreatic Carcinoma); assay: Bliss excess, mean over the matrix (fraction); higher = more synergy
Procedure, shortened: (§1)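 After 24 hours at 37°C and 5% CO2 in 1536-well plates, cells in DMEM/F12 or RPMI plus 10% FBS received two-drug dose matrices for 72 hours. Viability came from CellTiter-Glo 2.0 luminescence and was scaled as inhibition, anchored at 0 by vehicle wells and at 1 by blank wells. Combination Emax is taken as the second-highest inhibition in the matrix, and Bliss excess as the observed combination effect less EA + EB − EA·EB, with EA and EB the single-agent effects.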

MPP-89 (Mesothelioma) = assay: as above
Procedure, shortened: as §1

[2] = tested on: CAL-33 (Oral Cavity Carcinoma); assay: as above
Procedure, shortened: as §1

[3] = tested on: SNU-449 (Hepatocellular Carcinoma); assay: as above
Procedure, shortened: as §1

[4] = tested on: Detroit562 (Head and Neck Carcinoma); assay: as above
Procedure, shortened: as §1

[5] = tested on: NCI-H524 (Small Cell Lung Carcinoma); assay: as above
Procedure, shortened: as §1

NCI-H2052 (Mesothelioma) = assay: as above
Procedure, shortened: as §1

[6] = tested on: SNU-16 (Gastric Carcinoma); assay: as above
Procedure, shortened: as §1

[7] = tested on: BFTC-909 (Kidney Carcinoma); assay: as above
Procedure, shortened: as §1

[8] = tested on: SW1710 (Bladder Carcinoma); assay: as above
Procedure, shortened: as §1

[9] = tested on: NCI-H1568 (Lung Adenocarcinoma); assay: as above
Procedure, shortened: as §1

[10] = tested on: SW1573 (Lung Adenocarcinoma); assay: as above
Procedure, shortened: as §1

A673 (Ewing's Sarcoma) [11] = assay: as above
Procedure, shortened: as §1

GAMG (Glioblastoma) = assay: as above
Procedure, shortened: as §1

[12] = tested on: NCI-H209 (Small Cell Lung Carcinoma); assay: as above
Procedure, shortened: as §1

[13] = tested on: SNU-449 (Hepatocellular Carcinoma); assay: combination Emax (second highest fraction inhibited in the dose matrix, 72 h); higher = more inhibition; extreme values may be limits of the assay
Procedure, shortened: as §1

[14] = tested on: BFTC-909 (Kidney Carcinoma); assay: as above
Procedure, shortened: as §1

[15] = tested on: SW1710 (Bladder Carcinoma); assay: as above
Procedure, shortened: as §1

A673 (Ewing's Sarcoma) [16] = assay: as above
Procedure, shortened: as §1

KS-1 (Glioblastoma) = assay: as above
Procedure, shortened: as §1
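Throughout, for Bliss excess, mean over the matrix: after 72 h of two-drug dosing.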

| Structure (SMILES) | Bliss excess [1] | Bliss excess (MPP-89 (Mesothelioma)) | Bliss excess [2] | Bliss excess [3] | Bliss excess [4] | Bliss excess [5] | Bliss excess (NCI-H2052 (Mesothelioma)) | Bliss excess [6] | Bliss excess [7] | Bliss excess [8] | Bliss excess [9] | Bliss excess [10] | Bliss excess (A673 (Ewing's Sarcoma) [11]) | Bliss excess (GAMG (Glioblastoma)) | Bliss excess [12] | combination Emax [13] | combination Emax [14] | combination Emax [15] | combination Emax (A673 (Ewing's Sarcoma) [16]) | combination Emax (KS-1 (Glioblastoma)) |
| --- | --- | --- | --- | --- | --- | --- | --- | --- | --- | --- | --- | --- | --- | --- | --- | --- | --- | --- | --- | --- |
| CC1(C)CCC(CN2CCN(c3ccc(C(=O)NS(=O)(=O)c4ccc(NCC5CCOCC5)c([N+](=O)[O-])c4)c(Oc4cnc5[nH]ccc5c4)c3)CC2)=C(c2ccc(Cl)cc2)C1 [Venetoclax] + C1CN(CCC1(C(=O)N[C@@H](CCO)C2=CC=C(C=C2)Cl)N)C3=NC=NC4=C3C=CN4 [Capivasertib] (first compound max 1 µM, 7x7, partner max 3 µM) | -0.0461 | -0.0361 | 0.0084 | -0.075 | -0.0191 | -0.0624 | -0.0269 | -0.0496 | -0.0292 | -0.0896 | -0.0306 | -0.0428 | -0.0551 | -0.0185 | -0.0005 | 0.222 | 0.554 | 0.23 | 0.588 | 0.303 |
| CC1(C)CCC(CN2CCN(c3ccc(C(=O)NS(=O)(=O)c4ccc(NCC5CCOCC5)c([N+](=O)[O-])c4)c(Oc4cnc5[nH]ccc5c4)c3)CC2)=C(c2ccc(Cl)cc2)C1 [Venetoclax] + C=CCn1c(=O)c2cnc(Nc3ccc(N4CCN(C)CC4)cc3)nc2n1-c1cccc(C(C)(C)O)n1 [AZD1775] (first compound max 1 µM, partner max 1 µM) | -0.0356 | 0.1 | -0.0631 | -0.0353 | -0.0478 | 0.0089 | -0.0145 | -0.0478 | -0.0556 | -0.0519 | -0.0385 | -0.0427 | 0.112 | 0.0112 | 0.107 | 0.239 | 0.667 | 0.315 | 0.862 | 0.504 |
| CC1(C)CCC(CN2CCN(c3ccc(C(=O)NS(=O)(=O)c4ccc(NCC5CCOCC5)c([N+](=O)[O-])c4)c(Oc4cnc5[nH]ccc5c4)c3)CC2)=C(c2ccc(Cl)cc2)C1 [Venetoclax] + CCN(CCO)CCCOc1ccc2c(Nc3cc(CC(=O)Nc4cccc(F)c4)[nH]n3)ncnc2c1 [AZD2811] (first compound max 1 µM, 7x7, partner max 1 µM) | -0.0103 | -0.0093 | -0.0261 | -0.0642 | -0.013 | -0.0074 | -0.0112 | 0.0202 | -0.0289 | 0.0032 | -0.0339 | -0.0575 | 0.0295 | -0.0368 | 0.356 | 0.239 | 0.215 | 0.248 | 0.861 | 0.341 |
| CC1(C)CCC(CN2CCN(c3ccc(C(=O)NS(=O)(=O)c4ccc(NCC5CCOCC5)c([N+](=O)[O-])c4)c(Oc4cnc5[nH]ccc5c4)c3)CC2)=C(c2ccc(Cl)cc2)C1 [Venetoclax] + CN(C)CCCOc1ccc(-c2ccc3ncc4c(c3c2)n(C2CCOCC2)c(=O)n4C)cn1 [AZD0156] (first compound max 1 µM, 7x7, partner max 1 µM) | -0.02 | -0.0182 | -0.0064 | -0.07 | -0.0214 | 0.0028 | -0.0184 | -0.0015 | 0.0072 | -0.0264 | -0.0166 | -0.0553 | 0.0265 | -0.0225 | 0.0423 | 0.243 | 0.144 | 0.239 | 0.835 | 0.224 |
| CC1(C)CCC(CN2CCN(c3ccc(C(=O)NS(=O)(=O)c4ccc(NCC5CCOCC5)c([N+](=O)[O-])c4)c(Oc4cnc5[nH]ccc5c4)c3)CC2)=C(c2ccc(Cl)cc2)C1 [Venetoclax] + COc1cc(Nc2ncc3c(n2)-c2ccc(Cl)cc2C(c2c(F)cccc2OC)=NC3)ccc1C(=O)O [Alisertib] (first compound max 1 µM, 7x7, partner max 10 µM) | -0.0354 | -0.0556 | -0.0356 | -0.0753 | -0.043 | -0.0902 | -0.0169 | -0.052 | 0.0116 | -0.0425 | -0.0418 | -0.0548 | 0.198 | -0.0024 | 0.318 | 0.313 | 0.502 | 0.306 | 0.835 | 0.635 |
| CC1(C)CCC(CN2CCN(c3ccc(C(=O)NS(=O)(=O)c4ccc(NCC5CCOCC5)c([N+](=O)[O-])c4)c(Oc4cnc5[nH]ccc5c4)c3)CC2)=C(c2ccc(Cl)cc2)C1 [Venetoclax] + C[C@@H]1COCCN1C2=NC(=NC(=C2)C3(CC3)[S@](=N)(=O)C)C4=C5C=CNC5=NC=C4 [AZD6738] (first compound max 1 µM, 7x7, partner max 10 µM) | -0.0303 | -0.0226 | -0.0489 | -0.0239 | -0.0505 | -0.0453 | -0.0406 | -0.0218 | -0.0384 | -0.0404 | -0.0156 | -0.0705 | -0.0024 | -0.0727 | 0.127 | 0.26 | 0.853 | 0.516 | 0.89 | 0.57 |
| CC1(C)CCC(CN2CCN(c3ccc(C(=O)NS(=O)(=O)c4ccc(NCC5CCOCC5)c([N+](=O)[O-])c4)c(Oc4cnc5[nH]ccc5c4)c3)CC2)=C(c2ccc(Cl)cc2)C1 [Venetoclax] + C[C@@H](Nc1cc(F)cc(F)c1)c1cc(C(=O)N(C)C)cc2c(=O)cc(N3CCOCC3)oc12 [AZD8186] (first compound max 1 µM, 7x7, partner max 3 µM) | -0.048 | -0.0096 | -0.0241 | -0.0583 | -0.0336 | -0.009 | -0.0266 | 0.009 | 0.0073 | -0.0826 | -0.0408 | -0.0556 | -0.023 | -0.0453 | 0.1 | 0.172 | 0.203 | 0.194 | 0.558 | 0.341 |
